Experimental data from PubChem BioAssay (NCI).
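Where inhibition never reached the appropriate level, the endpoint shown equals the highest concentration tested. Otherwise, values were interpolated linearly from a five-concentration, 48-hour dose response in 96-well plates. GI50 = concentration required for 50% inhibition of growth. TGI is the concentration that stops growth completely.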

Columns and labels:
Experiment in all cases: growth of human tumour cells (NCI), 48 h
[1] = system: 786-0 renal
[2] = system: A498 renal
[3] = system: A549 NSCLC
[4] = system: ACHN renal
[5] = system: BT-549 breast
[6] = system: CAKI-1 renal
[7] = system: CCRF-CEM leukemia
[8] = system: COLO 205 colon
[9] = system: DU-145 prostate
[10] = system: HCC-2998 colon
[11] = system: HCT-116 colon
[12] = system: HCT-15 colon
[13] = system: HL-60(TB) leukemia
[14] = system: HOP-62 NSCLC
[15] = system: HOP-92 NSCLC
[16] = system: HS 578T breast
[17] = system: HT29 colon
[18] = system: IGROV1 ovarian
[19] = system: K-562 leukemia
[20] = system: KM12 colon
[21] = system: LOX IMVI melanoma
[22] = system: M14 melanoma
[23] = system: MALME-3M melanoma
[24] = system: MCF7 breast
[25] = system: MDA-MB-231 breast
[26] = system: MDA-MB-435
[27] = system: MOLT-4 leukemia
[28] = system: NCI-H226 lung
[29] = system: NCI-H23 lung
[30] = system: NCI-H460 lung
[31] = system: NCI-H522 lung
[32] = system: NCI/ADR-RES ovarian
[33] = system: OVCAR-3 ovarian
[34] = system: OVCAR-4 ovarian
[35] = system: OVCAR-5 ovarian
[36] = system: OVCAR-8 ovarian
[37] = system: PC-3 prostate
[38] = system: RPMI-8226 leukemia
[39] = system: RXF 393 renal
[40] = system: SF-268 CNS
[41] = system: SF-295 CNS
[42] = system: SF-539 CNS
[43] = system: SK-MEL-2 melanoma
[44] = system: SK-MEL-28 melanoma
[45] = system: SK-MEL-5 melanoma
[46] = system: SK-OV-3 ovarian
[47] = system: SN12C renal
[48] = system: SNB-19 CNS
[49] = system: SNB-75 CNS
[50] = system: SR leukemia
[51] = system: SW-620 colon
[52] = system: T-47D breast
[53] = system: TK-10 renal
[54] = system: U251 CNS
[55] = system: UACC-257 melanoma
[56] = system: UACC-62 melanoma
[57] = system: UO-31 renal

COc1ccc(C(=O)CC2(O)C(=O)Nc3c(Cl)ccc(Cl)c32)cc1 (centres undefined)
GI50 [1]: 6.42 µM
TGI [1]: > 100 µM
GI50 [2]: 0.599 µM
TGI [2]: 7.02 µM
GI50 [3]: 1.55 µM
TGI [3]: > 100 µM
GI50 [4]: 12.6 µM
TGI [4]: > 100 µM
GI50 [5]: 2.43 µM
TGI [5]: > 70.9 µM
GI50 [6]: 1.75 µM
TGI [6]: > 100 µM
GI50 [7]: 2.03 µM
TGI [7]: > 26.3 µM
GI50 [8]: 0.954 µM
TGI [8]: 5.3 µM
GI50 [9]: 3.44 µM
TGI [9]: > 37.6 µM
GI50 [10]: 5.24 µM
TGI [10]: > 54 µM
GI50 [11]: 0.72 µM
TGI [11]: 23.9 µM
GI50 [12]: 0.885 µM
TGI [12]: 86.4 µM
GI50 [13]: 0.384 µM
TGI [13]: 3.51 µM
GI50 [14]: 3.42 µM
TGI [14]: > 100 µM
GI50 [15]: 1.22 µM
TGI [15]: 18.4 µM
GI50 [16]: 1.66 µM
TGI [16]: > 24.6 µM
GI50 [17]: 0.491 µM
TGI [17]: > 57.9 µM
GI50 [18]: 4.95 µM
TGI [18]: > 100 µM
GI50 [19]: 0.403 µM
TGI [19]: > 100 µM
GI50 [20]: 0.732 µM
TGI [20]: > 59.2 µM
GI50 [21]: 2.72 µM
TGI [21]: > 100 µM
GI50 [22]: 0.56 µM
TGI [22]: > 22.2 µM
GI50 [23]: 8.96 µM
TGI [23]: > 100 µM
GI50 [24]: 0.64 µM
TGI [24]: > 100 µM
GI50 [25]: 4.27 µM
TGI [25]: > 92.4 µM
GI50 [26]: 0.225 µM
TGI [26]: 0.649 µM
GI50 [27]: 3.18 µM
TGI [27]: > 78.5 µM
GI50 [28]: 30.6 µM
TGI [28]: > 100 µM
GI50 [29]: 4.61 µM
TGI [29]: > 60.6 µM
GI50 [30]: 0.97 µM
TGI [30]: 40.4 µM
GI50 [31]: 0.406 µM
TGI [31]: 3.58 µM
GI50 [32]: 0.715 µM
TGI [32]: 19.6 µM
GI50 [33]: 0.701 µM
TGI [33]: 3.75 µM
GI50 [34]: 11.9 µM
TGI [34]: > 100 µM
GI50 [35]: 5.23 µM
TGI [35]: > 100 µM
GI50 [36]: 3.62 µM
TGI [36]: 60.3 µM
GI50 [37]: 2.8 µM
TGI [37]: > 100 µM
GI50 [38]: 2.64 µM
TGI [38]: 15.5 µM
GI50 [39]: 3.07 µM
TGI [39]: > 100 µM
GI50 [40]: 5.95 µM
TGI [40]: > 61.1 µM
GI50 [41]: 1.35 µM
TGI [41]: 14.8 µM
GI50 [42]: 1.64 µM
TGI [42]: 6.96 µM
GI50 [43]: 2.21 µM
TGI [43]: > 44.1 µM
GI50 [44]: 6.22 µM
TGI [44]: > 100 µM
GI50 [45]: 1.01 µM
TGI [45]: 18.8 µM
GI50 [46]: 2.89 µM
TGI [46]: > 100 µM
GI50 [47]: 4.6 µM
TGI [47]: > 95.1 µM
GI50 [48]: 4.68 µM
TGI [48]: > 100 µM
GI50 [49]: 1.89 µM
TGI [49]: > 29.8 µM
GI50 [50]: 0.413 µM
TGI [50]: 56.1 µM
GI50 [51]: 0.503 µM
TGI [51]: > 100 µM
GI50 [52]: 9.9 µM
TGI [52]: > 100 µM
GI50 [53]: 8.98 µM
TGI [53]: > 100 µM
GI50 [54]: 2.33 µM
TGI [54]: > 62.3 µM
GI50 [55]: 15.5 µM
TGI [55]: > 100 µM
GI50 [56]: 0.791 µM
TGI [56]: > 100 µM
GI50 [57]: 6.65 µM
TGI [57]: > 100 µM
